What all share (assay type): functional, cell-based
The subject of experiment [1] is HeLa. In words: Cytotoxicity against human HeLa cells at 100 uM after 48 hrs by MTT assay. On the technique in general: Formazan colour is commonly taken as a measure of viable cells.
In the next experiment the test system is 786-0. In words: Cytotoxicity against human 7860 cells after 48 hrs by MTT assay.
Experiment [2] concerns HeLa. The experiment in a line: Cytotoxicity against human HeLa cells at 125 uM after 48 hrs by MTT assay.

A value given as a limit tells only on which side of the number the result lay.

Broadly, the IC50 is the concentration at which inhibition is half-maximal. The low end stands for higher potency, the high end for lower potency.

On to `Cc1cn([C@H]2C[C@H](N=[N+]=[N-])[C@@H](COP(=O)(NCCNCCNC(=O)CCC(C)[C@H]3CC[C@H]4[C@@H]5C(=O)C[C@@H]6CC(=O)CC[C@]6(C)[C@H]5CC(=O)[C@]34C)OC[C@H]3O[C@@H](n4cc(C)c(=O)[nH]c4=O)C[C@@H]3N=[N+]=[N-])O2)c(=O)[nH]c1=O` (stereo not given in full), for which the concentration for half-maximal inhibition (IC50) in the experiment with HeLa [1] is greater than 100 µM; with 786-0 (Homo sapiens, 786-0, 48 h) it was greater than 100 µM. Consider `CCCCCCCCCCCCCCCCCCOP(=O)(NCCCNCCCNC(=O)CCC(C)[C@H]1CC[C@H]2[C@@H]3CC[C@@H]4C[C@H](O)CC[C@]4(C)[C@H]3C[C@H](O)[C@]12C)OC[C@H]1O[C@@H](n2cc(C)c(=O)[nH]c2=O)C[C@@H]1N=[N+]=[N-]` (stereo not given in full), for which the IC50 in the experiment on HeLa [1] came out at 89 µM; with 786-0 (Homo sapiens, 786-0, 48 h) it was 6.8 µM. In the case of `Cc1cn([C@H]2C[C@H](N=[N+]=[N-])[C@@H](COP(=O)(NCCNCCNC(=O)CCC(C)[C@H]3CC[C@H]4[C@@H]5CC[C@@H]6C[C@H](O)CC[C@]6(C)[C@H]5C[C@H](O)[C@]34C)OC[C@H]3O[C@@H](n4cc(C)c(=O)[nH]c4=O)C[C@@H]3N=[N+]=[N-])O2)c(=O)[nH]c1=O` (stereo not given in full), the IC50 was greater than 100 µM in the experiment on HeLa [1] and greater than 100 µM in the experiment with 786-0 (Homo sapiens, 786-0, 48 h). `CCCCCCCCCCCCCCCCCCOP(=O)(NCCNCCNC(=O)CCC(C)[C@H]1CC[C@H]2[C@@H]3[C@H](O)C[C@@H]4C[C@H](O)CC[C@]4(C)[C@H]3C[C@H](O)[C@]12C)OC[C@H]1O[C@@H](n2cc(C)c(=O)[nH]c2=O)C[C@@H]1N=[N+]=[N-]` (stereo in doubt; 2a) registered an IC50 with 786-0 (786-0) of 59 µM. `CCCCCCCCCCCCCCCCCCOP(=O)(NCCCNCCCNC(=O)CCC(C)[C@H]1CC[C@H]2[C@@H]3C(=O)C[C@@H]4CC(=O)CC[C@]4(C)[C@H]3CC(=O)[C@]12C)OC[C@H]1O[C@@H](n2cc(C)c(=O)[nH]c2=O)C[C@@H]1N=[N+]=[N-]` (stereo not given in full): the half-maximal inhibitory concentration (IC50) with HeLa [1] came to 91 µM; in the experiment with 786-0 (Homo sapiens, 786-0, 48 h), 7.1 µM.

For `CCCCCCCCCCCCCCCCCCO[PH](=O)OC[C@H]1O[C@@H](n2cc(C)c(=O)[nH]c2=O)C[C@@H]1N=[N+]=[N-]` (stereo not given in full), the half-inhibitory concentration (IC50) in the experiment with HeLa [1] is greater than 100 µM; in the experiment on 786-0 (Homo sapiens, 786-0, 48 h) it was 86 µM. `Cc1cn([C@H]2C[C@H](N=[N+]=[N-])[C@@H](COP(=O)(NCCCNCCCNC(=O)CCC(C)[C@H]3CC[C@H]4[C@@H]5CC[C@@H]6C[C@H](O)CC[C@]6(C)[C@H]5C[C@H](O)[C@]34C)OC[C@H]3O[C@@H](n4cc(C)c(=O)[nH]c4=O)C[C@@H]3N=[N+]=[N-])O2)c(=O)[nH]c1=O` (stereo not given in full): the 50% inhibitory concentration (IC50) with HeLa [1] was greater than 100 µM; in the experiment with 786-0 (Homo sapiens, 786-0, 48 h), greater than 100 µM.

For `Cc1cn([C@H]2C[C@H](N=[N+]=[N-])[C@@H](COP(=O)(NCCCNCCCNC(=O)CCC(C)[C@H]3CC[C@H]4[C@@H]5C(=O)C[C@@H]6CC(=O)CC[C@]6(C)[C@H]5CC(=O)[C@]34C)OC[C@H]3O[C@@H](n4cc(C)c(=O)[nH]c4=O)C[C@@H]3N=[N+]=[N-])O2)c(=O)[nH]c1=O` (stereo not given in full), the concentration for half-maximal inhibition (IC50) with HeLa [1] is greater than 100 µM; in the experiment on 786-0 (Homo sapiens, 786-0, 48 h), greater than 100 µM.

Take `CCCCCCCCCCCCCCCCCCOP(=O)(NCCNCCNC(=O)CCC(C)[C@H]1CC[C@H]2[C@@H]3CC[C@@H]4C[C@H](O)CC[C@]4(C)[C@H]3C[C@H](O)[C@]12C)OC[C@H]1O[C@@H](n2cc(C)c(=O)[nH]c2=O)C[C@@H]1N=[N+]=[N-]` (stereo not given in full): the IC50 is greater than 100 µM with HeLa [1] and 58 µM in the experiment on 786-0 (Homo sapiens, 786-0, 48 h).

With `CCCCCCCCCCCCCCCCCCOP(=O)(NCCNCCNC(=O)CCC(C)[C@H]1CC[C@H]2[C@@H]3C(=O)C[C@@H]4CC(=O)CC[C@]4(C)[C@H]3CC(=O)[C@]12C)OC[C@H]1O[C@@H](n2cc(C)c(=O)[nH]c2=O)C[C@@H]1N=[N+]=[N-]` (stereo not given in full), the IC50 is greater than 100 µM in the experiment with HeLa [1] and 42 µM in the experiment on 786-0 (Homo sapiens, 786-0, 48 h). For `CCCCCCCCCCCCCCCCCCOP(=O)(NCCCNCCCNC(=O)CCC(C)[C@H]1CC[C@H]2[C@@H]3[C@H](O)C[C@@H]4C[C@H](O)CC[C@]4(C)[C@H]3C[C@H](O)[C@]12C)OC[C@H]1O[C@@H](n2cc(C)c(=O)[nH]c2=O)C[C@@H]1N=[N+]=[N-]` (stereo not given in full), the half-inhibitory concentration (IC50) came out at 94 µM with HeLa [1] and 7.2 µM in the experiment with 786-0 (Homo sapiens, 786-0, 48 h). On to `Cc1cn([C@H]2C[C@H](N=[N+]=[N-])[C@@H](COP(=O)(NCCNCCNC(=O)CCC(C)[C@H]3CC[C@H]4[C@@H]5[C@H](O)C[C@@H]6C[C@H](O)CC[C@]6(C)[C@H]5C[C@H](O)[C@]34C)OC[C@H]3O[C@@H](n4cc(C)c(=O)[nH]c4=O)C[C@@H]3N=[N+]=[N-])O2)c(=O)[nH]c1=O` (stereo not given in full), for which the IC50 in the experiment with HeLa [1] is greater than 100 µM; with 786-0 (Homo sapiens, 786-0, 48 h) it was greater than 100 µM. For `Cc1cn([C@H]2C[C@H](N=[N+]=[N-])[C@@H](CO)O2)c(=O)[nH]c1=O` [ZIDOVUDINE], the 50% inhibitory concentration (IC50) in the experiment with HeLa [2] and with HeLa [1] was greater than 100 µM each time.
